Measured values published in patent publication US20140336365A1, “CDR REGIONS OF MONOCLONAL ANTIBODY THAT ANTAGONIZE SPHINOGOSINE 1-PHOSPHATE AND RELATED METHODS” (priority 2011, published 2014).

Tests used:
tumor transplant model = settings: cited from earlier work
S1P receptors = settings: with the exception of S1P2; by stable internalization; cited from earlier work
MDA-MB-231 cells [1] = assay: Tamoxifen toxicity, cell viability by phase contrast microscopy; assay type: cell-based, human
Protocol: The experiment can be performed first without a S1P antagonist. MDA-MB-231 cells are cultured under standard conditions in Dulbecco's Minimal Essential Media supplemented with 10% fetal bovine serum and glutamate. Cells are grown in the absence of serum for 24 hours prior to experimental manipulation. Tamoxifen (Tam) and S1P are added to the media at the indicated concentrations for the indicated times at the appropriate concentrations (e.g., 3 μM Tam, 10 μM Tarn, and 20 μM Tam) for appropriate times (e.g., 6 hrs. and 24 hrs.). Cell viability is observed by direct illumination with an inverted phase contrast microscope.
The tamoxifen toxicity experiment can be performed using an antagonist of S1P that binds to S1P3. For example, the antiserum described in Example 1 can be employed. MDA-MB-231 cells are cultured under standard conditions in Dulbecco's Minimal Essential Media supplemented with 10% fetal bovine serum and glutamate. Serum concentration is reduced to 1% for 24 hours prior to experimental manipulation. Tamoxifen and S1P are added to the media at the appropriate concentrations (e.g., 0 μM Tam, 10 μM Tam, and 20 μM Tam) for appropriate times (e.g., 6 hrs. and 24 hrs.). Cell viability is observed by direct illumination with an inverted phase contrast microscope.

MCF-7 cells = assay: Cell death by annexin V assay (FACS); assay type: cell-based, human; settings: for % Annexin positive cells: overnight
Protocol: Quantification of cell death can be performed with an annexin V assay. […] of 500 nM S1P, then collected by trypsinization, and labeled with Alexafluor 488-conjugated annexin V (Invitrogen Corp, Carlsbad, Calif.) per manufacturer's protocol. Cells can be counted on a FACSAria cell sorting system and analyzed with FACSDiva software (BD Biosciences, San Jose, Calif.). […] This effect is attenuated by co-administration of 500 nM S1P.

MDA-MB-231 = assay: Cell proliferation by BrdU incorporation, MDA-MB-231; assay type: cell-based, human
Protocol: (§1) The experiment can first be performed in the absence of the antagonist. The effect of S1P on cell proliferation is determined by measuring bromodeoxyuridine (BrdU) incorporation. In this assay, cells are treated with S1P or vehicle control (0.1% fatty acid-free BSA) for 30 minutes before being exposed to a 30-minute BrdU pulse. Cells are then fixed with ethanol, labeled with a biotinylated α-BrdU antibody, incubated with streptavidin-peroxidase, developed with DAB, and counter-stained with hematoxylin. Nuclei of cells in S-phase during the 30-minute pulse are labeled brown, while non-proliferative cells show the blue hematoxylin stain.

MDA-MB-231 cells [2] = assay: Cell motility, modified Boyden's chamber assay; assay type: cell-based, human; settings: 1 μM S1P
Protocol: Cell motility is determined using a modified Boyden's chamber assay. MDA-MB-231 cells are introduced into the upper wells of collagen-coated chambers in serum-free DMEM and incubated for 30 minutes before the addition of either 1 μM S1P in BSA or BSA alone. At the indicated times, wells are isolated and fixed with 4% paraformaldehyde before non-migrated cells in the upper well are removed with a cotton swab. Membranes are then stained with DAPI to visualize individual migrated cells on the bottom of the membranes. Results shown are the averages of three independent experiments.

[3] = tested on: MDA-MB-231 breast cancer cells; assay: S1P-induced cytoskeletal rearrangement / cell rounding (phalloidin staining); assay type: cell-based, human
Protocol: MDA-MB-231 breast cancer cells are cultured on collagen-coated coverslips in the presence of 10% FBS using standard techniques. Because S1P is present at high concentrations in serum, BCCs are “serum-starved” in Dulbecco's modified Eagle medium (DMEM) for 12 hours prior to experimental manipulation. S1P is solubilized with bovine serum albumin (BSA) carrier and administered at a final concentration of 1 nM to 1 μM. Coverslips are collected at representative time points such as 10 minutes, 1 hr., 2 hrs., 4 hrs., and 6 hrs., fixed with 4% paraformaldehyde, and stained with rhodamine-conjugated phalloidin to label cytoskeletal actin.
The cell rounding experiment can be performed using an antagonist of S1P that binds to S1P3. For example, the antiserum described in Example 1 can be employed. Serum-starved MDA-MB-231 cells are incubated with preimmune serum or S1P3-reactive antiserum for 15 minutes prior to a 30-minute exposure to 10 nM S1P, then evaluated for response both in % cells responding and average cell area.
MDA-MB-231 cells are grown under standard culture conditions and serum starved for 24 hours prior to experimental manipulation. S1P3 antiserum or pre-immune serum obtained from the same rabbit is added to the media at a final concentration of 1:10,000 as indicated. 15 minutes later, S1P is added to the media to a final concentration of 10 nM. 30 minutes after S1P administration, cells are fixed with 4% paraformaldehyde, stained with rhodamine-conjugated phalloidin, and visualized with fluorescence microscopy. Rounded cells are counted by an experimenter blinded to the identity of the sample. Cell area is determined by quantification with ImageJ software.

MCF-7 = assay: Cell proliferation by BrdU incorporation, MCF-7; assay type: cell-based, human
Protocol: as §1

S1P3 = target: T1, S1P3 (Homo sapiens, UniProt Q99500); assay: Immunocytochemistry of hybridoma supernatants on HEK293 cells expressing tagged S1P3; assay type: binding; settings: HEK293 cells expressing S1P3 fused to V5 or EGFP
T1 construct: expressed in transfected cells; host or cells: HEK293 (pcDNA3.1)
T1 sequence (Q99500 whole entry, the tested form may be a part): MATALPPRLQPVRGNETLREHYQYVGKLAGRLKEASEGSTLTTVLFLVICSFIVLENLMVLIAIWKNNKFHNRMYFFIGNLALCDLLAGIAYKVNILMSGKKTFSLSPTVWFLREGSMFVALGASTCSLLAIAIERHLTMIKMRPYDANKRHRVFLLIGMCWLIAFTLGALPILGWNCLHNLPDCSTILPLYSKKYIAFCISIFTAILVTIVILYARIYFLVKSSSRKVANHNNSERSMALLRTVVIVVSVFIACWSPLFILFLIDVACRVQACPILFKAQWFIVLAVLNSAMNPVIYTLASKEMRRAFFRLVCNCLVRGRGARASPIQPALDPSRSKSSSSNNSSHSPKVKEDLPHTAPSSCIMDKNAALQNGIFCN
Source text: A synthetic peptide is synthesized with the amino acid sequence: KKTFSLSPTVWFLREG. This sequence corresponds to the extra-cellular loop between transmembrane domains 2 and 3 of cell surface receptor S1P3. This peptide is conjugated to keyhole limpet hemocyanin (KLH) and used for the immunization of 5 balb/c mice. Production of specific antibodies is confirmed by immunocytochemistry. HEK293 cells are transiently transfected with a mammalian expression vector (pcDNA3.1) encoding the full-length S1P3 protein fused to either a V5 epitope or enhanced green fluorescent protein (EGFP) on its C-terminal end. After 16-36 hours, cells are fixed with 4% paraformaldehyde, blocked with BSA, and exposed to antiserum from immunized mice (dilutions of 1:10, 1:25, 1:50, 1:100, 1:250, 1:500, 1:1,000, 1:2,000, 1:5,000), or supernatants from hybridoma cultures. […] Binding of antibodies from serum or supernatants is detected with a Cy3-conjugated secondary antibody. Specificity of binding is evaluated by coincidence of this signal with green fluorescence, either from the expressed EGFP fusion protein or from secondary antibody bound to the expressed V5 epitope.
Mice are immunized with KLH-conjugated peptide at regular intervals and evaluated by enzyme-linked immunosorbent assay (ELISA) and immunocytochemistry until sera are identified that contain specific antibodies (2-3 months). […]

Molecule: CCCCCCCCc1ccc(CCC(N)(CO)CO)cc1 [FTY720]
- Effect on angiogenesis and tumor growth (tumor transplant model): inhibit angiogenesis and subsequent growth
- Inhibition of S1P receptors (S1P receptors): effectively inhibit four of the five known receptors

Molecule: CC/C(=C(\c1ccccc1)c1ccc(OCCN(C)C)cc1)c1ccccc1 [Tamoxifen]
- Cell viability (MDA-MB-231 cells [1]; 3 μM tamoxifen, 24 hour, serum-free): most control cells are lost
- Cell viability (MDA-MB-231 cells [1]; 10 μM Tam, 6 hours, 1% FBS): appear normal
- Cell viability (MDA-MB-231 cells [1]; 10 μM tamoxifen, 6 hours, serum-free): only a few viable cells remain
- Cell viability (MDA-MB-231 cells [1]; 10 μM tamoxifen, 24 hour, serum-free): cell death is complete
- Cell viability (MDA-MB-231 cells [1]; 20 μM Tam, 6 hours, 1% FBS): begin to show evidence of cell death
- Cell viability (MDA-MB-231 cells [1]; 20 μM tamoxifen, 6 hours, serum-free): all cells are dead/dying
- % Annexin positive cells (MCF-7 cells; 10 μM Tamoxifen, BSA (no S1P)): 20.1%
- % Annexin positive cells (MCF-7 cells; 20 μM Tamoxifen, BSA (no S1P)): 28.9%
- Effect on annexin V binding (apoptotic cell death), in words (MCF-7 cells; overnight treatment with tamoxifen): increase in annexin V binding

Molecule: CCCCCCCCCCCCC/C=C/[C@@H](O)[C@@H](N)COP(=O)(O)O [S1P, Sphingosine 1-phosphate]
- Cell viability under tamoxifen with S1P (MDA-MB-231 cells [1]; 1 μM S1P with 10 or 20 μM tamoxifen, 6 hours, serum-free): many viable cells remain
- Survival under tamoxifen with S1P (MDA-MB-231 cells [1]; S1P with 3 or 10 μM tamoxifen, 24 hour, serum-free): markedly improves survival
- Effect on mitosis (BrdU incorporation), in words (MDA-MB-231): dose-dependent increase in mitosis
- Mitosis by BrdU incorporation (MDA-MB-231; 10 nM S1P): 71%
- Mitosis by BrdU incorporation (MDA-MB-231; 100 nM S1P): 84%
- Mitosis by BrdU incorporation (MDA-MB-231; 1 μM S1P): 88%
- % Annexin positive cells (MCF-7 cells; 500 nM S1P with 10 μM Tamoxifen): 15.9%
- % Annexin positive cells (MCF-7 cells; 500 nM S1P with 20 μM Tamoxifen): 20.2%
- % Annexin positive cells (MCF-7 cells; 500 nM S1P, 0 Tamoxifen): 6.2%
- Effect on tamoxifen-induced annexin V binding, in words (MCF-7 cells; co-administration of 500 nM S1P): attenuated
- Effect on cell motility compared to vehicle control, in words (MDA-MB-231 cells [2]): rapid and significant increase in cell motility
- Cell migration (migrated cells) (MDA-MB-231 cells [2]; 1 hours): 672.5 Cells/mm^2
- Cell migration (migrated cells) (MDA-MB-231 cells [2]; 2 hours): 900 Cells/mm^2
- Cell migration (migrated cells) (MDA-MB-231 cells [2]; 4 hours): 1385 Cells/mm^2
- Increase in migrated cells compared to vehicle control (MDA-MB-231 cells [2]; two hour time point): nearly two-fold increase
- Increase in migrated cells compared to vehicle control (MDA-MB-231 cells [2]; within one hour): 74%
- Cell shape change ([3]; 1 nM S1P): minor cell shape changes
- Cell shape change ([3]; 10 nM S1P): dramatic cell rounding
- % Rounded Cells Following S1P Treatment ([3]; 10 nM S1P, 30 min, no serum): 64%
- Average Cell Area Following S1P Treatment ([3]; 10 nM S1P, 30 min, no serum): 960.4 μm^2
- Cells with marked cytoskeletal rearrangement ([3]; 1 μM S1P, within 10 minutes): > 90%
- Effect on mitosis (BrdU incorporation), in words (MCF-7): dose-dependent increase in mitosis
- Mitosis by BrdU incorporation (MCF-7; 10 nM S1P): 49%
- Mitosis by BrdU incorporation (MCF-7; 100 nM S1P): 45%
- Mitosis by BrdU incorporation (MCF-7; 1 μM S1P): 61%

B1: EDDbeta7H9: Hybridoma EDDbeta7H9 (ATCC PTA-9973) produces the monoclonal antibody Mab7H9, which binds S1P3 (antibody, V domains shown)
VL: DIVMTQSHKFMSTSVGDRVSITCKASQDVSTGVVWYQQKEGQSPKLLIYSASYRYTGVPNRFTGSGSGTDFTFTISGVQAEDLAVYYCQQHYSSPTFGGGTKLEIKRADAAPTVSIFPPSS
VH: QVTLKESGPGILQPSQTLSLTCSFSGFSLSTSNMGVGWIRQPSGKGLEWLLHILWNDNKHYNPALKSRLTISKDTYKNQVFLKIANVDTADTATYYCARILYRSNYYVMDYWGQGTSVTVSSAKTTPPSVYPL
- Presence of specific antibodies in hybridoma supernatant by immunocytochemistry (S1P3): positive
